Experimental findings from patent US12473262B2, “Aryl hydrocarbon receptor activators” (Oregon State University, priority 2019, dated 2025) are described below.

In the test the target is aryl hydrocarbon receptor (AhR) (Mus musculus (Mouse), UniProt P30561). Kind of test: AhR ligand screening: AhRE-luciferase reporter in transfected Hepa1 cells. The format is cell-based. The following applies: for Fold @ 1 nM: fold change of luciferase expression at 1 nM test compound relative to vehicle (0.1% DMSO); for Fold @ 100 nM: fold change of luciferase expression at 100 nM test compound relative to vehicle (0.1% DMSO); for Fold @ 10 uM: fold change of luciferase expression at 10 uM test compound relative to vehicle (0.1% DMSO); for Fold relative to benchmark @ 100 nM: luciferase expression at 100 nM test compound relative to 100 nM benchmark compound 11-cl-BBQ. An excerpt:
The AhR is a ligand-activated transcription factor that dimerizes with ARNT to regulate gene expression, and genes that are regulated by AhR ligands have AhR response elements (AhRE) in their promotor regions.
Briefly, Hepa1 cells were transfected with a reporter construct consisting of AhRE linked to luciferase. The addition of AhR ligands to the transfected cells induces luciferase production that is directly proportional to the amount of AhR activation. We used this reporter system to identify novel compounds with AhR-activating properties. Transfected Hepa1 cells were plated at a density of 1×10^4 cells/well in 100 μL of cell culture media in 96 well plates and grown overnight. […] Following incubation with the compounds, the media was removed, and cells were harvested with lysis buffer. The lysates were transferred to opaque 96 well plates, where they were assayed well-by-well for luciferase activity by injection of luciferase assay substrate with a 2 sec mixing time and 15 sec integration period on a Tropix TR717 microplate luminometer. Data were expressed as fold induction of luciferase relative to vehicle (0.1% DMSO) treated cells.
A general note: In a reporter assay the amount or activity of a reporter protein is the signal.

aryl hydrocarbon receptor (AhR), sequence (P30561 10-805): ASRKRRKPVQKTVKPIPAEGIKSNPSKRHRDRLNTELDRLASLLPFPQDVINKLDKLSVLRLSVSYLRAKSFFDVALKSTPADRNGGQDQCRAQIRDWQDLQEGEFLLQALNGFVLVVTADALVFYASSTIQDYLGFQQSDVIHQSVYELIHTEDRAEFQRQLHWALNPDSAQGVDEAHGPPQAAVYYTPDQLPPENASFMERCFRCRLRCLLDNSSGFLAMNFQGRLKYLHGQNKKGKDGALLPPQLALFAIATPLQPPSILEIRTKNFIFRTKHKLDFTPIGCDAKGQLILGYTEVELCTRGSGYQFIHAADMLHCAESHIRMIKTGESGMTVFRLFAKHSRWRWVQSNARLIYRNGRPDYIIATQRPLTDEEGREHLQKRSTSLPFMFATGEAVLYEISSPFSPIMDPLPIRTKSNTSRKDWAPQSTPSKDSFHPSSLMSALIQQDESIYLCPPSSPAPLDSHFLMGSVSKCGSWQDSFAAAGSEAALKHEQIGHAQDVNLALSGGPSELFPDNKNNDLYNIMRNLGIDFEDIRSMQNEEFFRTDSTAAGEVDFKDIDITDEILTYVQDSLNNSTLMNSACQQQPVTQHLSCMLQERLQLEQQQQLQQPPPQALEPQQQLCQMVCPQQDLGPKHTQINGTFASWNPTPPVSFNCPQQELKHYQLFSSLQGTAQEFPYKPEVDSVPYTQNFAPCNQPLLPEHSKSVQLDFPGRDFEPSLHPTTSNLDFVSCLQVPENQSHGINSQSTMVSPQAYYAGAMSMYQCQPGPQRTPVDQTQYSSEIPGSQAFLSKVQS
aryl hydrocarbon receptor (AhR), sequence (P53762 whole entry partner): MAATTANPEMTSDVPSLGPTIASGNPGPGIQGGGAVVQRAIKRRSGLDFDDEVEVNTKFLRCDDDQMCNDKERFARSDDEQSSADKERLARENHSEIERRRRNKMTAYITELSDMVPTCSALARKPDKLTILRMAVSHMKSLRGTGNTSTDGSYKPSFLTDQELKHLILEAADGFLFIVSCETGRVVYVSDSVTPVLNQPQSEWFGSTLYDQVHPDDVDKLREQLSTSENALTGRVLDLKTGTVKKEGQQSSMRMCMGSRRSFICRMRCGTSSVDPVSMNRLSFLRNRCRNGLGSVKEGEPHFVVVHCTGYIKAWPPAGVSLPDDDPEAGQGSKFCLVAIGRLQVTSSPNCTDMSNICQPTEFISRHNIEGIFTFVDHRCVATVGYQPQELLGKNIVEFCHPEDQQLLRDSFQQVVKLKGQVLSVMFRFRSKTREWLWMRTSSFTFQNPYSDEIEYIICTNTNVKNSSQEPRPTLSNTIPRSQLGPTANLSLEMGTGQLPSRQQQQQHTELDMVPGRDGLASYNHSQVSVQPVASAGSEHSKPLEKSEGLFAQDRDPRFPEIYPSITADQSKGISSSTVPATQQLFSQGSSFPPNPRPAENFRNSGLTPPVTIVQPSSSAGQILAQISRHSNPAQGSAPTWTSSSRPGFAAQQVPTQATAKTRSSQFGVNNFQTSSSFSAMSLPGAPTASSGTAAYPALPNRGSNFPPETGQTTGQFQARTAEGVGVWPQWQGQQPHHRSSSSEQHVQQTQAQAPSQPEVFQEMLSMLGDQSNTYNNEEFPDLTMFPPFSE

As for `O=C(c1ccc(F)c(F)c1)n1c(-c2c3ccccc3cc3ccccc23)nc2cc(Cl)ccc21` [Compound 641], the “Fold @ 1 nM” value was 1 fold, the “Fold @ 100 nM” value is given as 1 fold, the “Fold @ 10 uM” value was found to be 21 fold and the “Fold relative to benchmark @ 100 nM” value was 0.11 fold.
For `O=C(c1ccccc1)n1c(-c2cccc3ccccc23)nc2cc(F)ccc21` [Compound 583], the “Fold @ 1 nM” value stood at 1 fold, the “Fold @ 100 nM” value is 5 fold, the “Fold @ 10 uM” value was 7 fold and the “Fold relative to benchmark @ 100 nM” value is 0.33 fold.
On the same counts, the results for `COC(=O)c1ccc2c(c1)nc(-c1cccc3ccccc13)n2S(=O)(=O)c1ccc(C(F)(F)F)cc1` [Compound 1401] are 1 fold, 1 fold, 2 fold and 0.03 fold.
`O=C(c1ccc2nc(-c3cccc4ccccc34)n(S(=O)(=O)c3cccc(F)c3)c2c1)N1CCCCC1` [Compound 1369]: the “Fold @ 1 nM” value is recorded as 1 fold, the “Fold @ 100 nM” value is listed as 1 fold, the “Fold @ 10 uM” value came to 2 fold and the “Fold relative to benchmark @ 100 nM” value was 0.03 fold.
`COC(=O)c1ccc2nc(-c3cccc4ccccc34)n(Cc3ccc(Cl)cc3)c2c1` [Compound 1407]: the “Fold @ 1 nM” value was found to be 1 fold, the “Fold @ 100 nM” value is recorded as 1 fold, the “Fold @ 10 uM” value was determined as 9 fold and the “Fold relative to benchmark @ 100 nM” value was 0.03 fold.
Regarding `O=C(C1CCCCC1)n1c(-c2cc3ccccc3o2)nc2cc(Cl)ccc21` [Compound 859], the “Fold @ 1 nM” value is 1 fold, the “Fold @ 100 nM” value stood at 12 fold, the “Fold @ 10 uM” value is given as 80 fold and the “Fold relative to benchmark @ 100 nM” value is 0.41 fold.
With `COC(=O)c1ccc2[nH]c(-c3cccc4ccccc34)nc2c1` [Compound 1360], the “Fold @ 1 nM” value is 1 fold, the “Fold @ 100 nM” value was found to be 2 fold, the “Fold @ 10 uM” value was found to be 18 fold and the “Fold relative to benchmark @ 100 nM” value was 0.07 fold.
Take `O=C(c1ccccc1)n1c(-c2cccc3ccccc23)nc2cc(Br)ccc21` [Compound 691]: the “Fold @ 1 nM” value is given as 2 fold, the “Fold @ 100 nM” value was determined as 26 fold, the “Fold @ 10 uM” value worked out at 34 fold and the “Fold relative to benchmark @ 100 nM” value amounted to 1 fold.
With `O=C(c1ccc(F)c(F)c1)n1c(-c2ccc(Cl)c3ccccc23)nc2cc(Cl)ccc21` [Compound 869], the “Fold @ 1 nM” value is 1 fold, the “Fold @ 100 nM” value turned out to be 12 fold, the “Fold @ 10 uM” value was found to be 68 fold and the “Fold relative to benchmark @ 100 nM” value came to 0.41 fold.
The like results for `O=C(c1ccc(F)c(F)c1)n1c(-c2cccc3ccccc23)nc2cc(Cl)c(Cl)cc21` [Compound 692] were, in that order, 3 fold, 24 fold, 85 fold and 0.92 fold.
In the case of `Cn1cc(C(=O)c2cccc3ccccc23)c2cc(Cl)ccc21` [Compound 359, (5-chloro-1-methyl-1H-indol-3-yl)(naphthalen-1-yl)methanone], the “Fold @ 1 nM” value is given as 1 fold, the “Fold @ 100 nM” value was determined as 1 fold, the “Fold @ 10 uM” value is given as 6 fold and the “Fold relative to benchmark @ 100 nM” value is 0.03 fold.
As for `O=C(c1ccc(F)c(F)c1)n1c(-c2ccc(Cl)c3ccccc23)nc2ccc(Cl)cc21` [Compound 870], the “Fold @ 1 nM” value turned out to be 1 fold, the “Fold @ 100 nM” value is reported as 9 fold, the “Fold @ 10 uM” value was 74 fold and the “Fold relative to benchmark @ 100 nM” value came out at 0.31 fold.
For `O=C(c1ccc(F)c(F)c1)n1c(-c2cccc3ccccc23)nc2ccc(OC(F)(F)F)cc21` [Compound 700], the “Fold @ 1 nM” value is on record as 1 fold, the “Fold @ 100 nM” value worked out at 16 fold, the “Fold @ 10 uM” value is recorded as 22 fold and the “Fold relative to benchmark @ 100 nM” value is given as 0.62 fold.
The like results for `COC(=O)c1ccc2c(c1)nc(-c1cccc3ccccc13)n2C(=O)c1ccc(Cl)cc1Cl` [Compound 1328] were, in that order, 1 fold, 2 fold, 11 fold and 0.07 fold.
On the same counts, the results for `O=C(c1ccc2c(c1)nc(-c1cccc3ccccc13)n2Cc1ccc(SC(F)(F)F)cc1)N1CCCCC1` [Compound 1411] are 1 fold, 1 fold, 4 fold and 0.03 fold.
In the case of `Cc1ccc(C(=O)c2c[nH]c3ccc(Cl)cc23)cc1` [Compound 882], the “Fold @ 1 nM” value came out at 1 fold, the “Fold @ 100 nM” value worked out at 1 fold, the “Fold @ 10 uM” value worked out at 2 fold and the “Fold relative to benchmark @ 100 nM” value came to 0.02 fold.
Consider `COc1ccc(C(=O)n2c(-c3cc4ccccc4s3)nc3cc(F)ccc32)cc1` [Compound 634], for which the “Fold @ 1 nM” value was 1 fold, the “Fold @ 100 nM” value came out at 2 fold, the “Fold @ 10 uM” value turned out to be 22 fold and the “Fold relative to benchmark @ 100 nM” value is 0.22 fold.
On the same counts, the results for `Clc1ccc2nc(-c3cccc4ccccc34)n(Cc3ccncc3)c2c1` [Compound 877] are 1 fold, 3 fold, 42 fold and 0.06 fold.
For the compound `O=C(c1ccc(F)c(F)c1)n1c(-c2cccc3ccccc23)nc2ccc(Br)cc21` [Compound 690], the “Fold @ 1 nM” value came out at 2 fold, the “Fold @ 100 nM” value is 22 fold, the “Fold @ 10 uM” value was 30 fold and the “Fold relative to benchmark @ 100 nM” value turned out to be 0.85 fold.
In the case of `COc1ccccc1S(=O)(=O)n1c(-c2cccc3ccccc23)nc2ccc(C(=O)N3CCCCC3)cc21` [Compound 1391], the “Fold @ 1 nM” value is 1 fold, the “Fold @ 100 nM” value is on record as 1 fold, the “Fold @ 10 uM” value is reported as 1 fold and the “Fold relative to benchmark @ 100 nM” value is listed as 0.03 fold.
Consider `CN1CCN(C(=O)c2ccc3nc(-c4cccc5ccccc45)n(S(=O)(=O)c4cccc(F)c4)c3c2)CC1` [Compound 1393], for which the “Fold @ 1 nM” value is recorded as 1 fold, the “Fold @ 100 nM” value came to 1 fold, the “Fold @ 10 uM” value was 4 fold and the “Fold relative to benchmark @ 100 nM” value worked out at 0.03 fold.
In the case of `COC(=O)c1ccc2c(c1)nc(-c1cccc3ccccc13)n2S(=O)(=O)c1ccc(C#N)cc1` [Compound 1361], the “Fold @ 1 nM” value came out at 1 fold, the “Fold @ 100 nM” value turned out to be 2 fold, the “Fold @ 10 uM” value is reported as 2 fold and the “Fold relative to benchmark @ 100 nM” value worked out at 0.07 fold.
With `O=C(c1ccc2nc(-c3cccc4ccccc34)n(S(=O)(=O)c3ccc(C(F)(F)F)cc3)c2c1)N1CCOCC1` [Compound 1370], the “Fold @ 1 nM” value is recorded as 1 fold, the “Fold @ 100 nM” value worked out at 1 fold, the “Fold @ 10 uM” value worked out at 4 fold and the “Fold relative to benchmark @ 100 nM” value is listed as 0.03 fold.
For `COc1ccc(C(=O)n2c(-c3cccc4ccccc34)nc3cc(C)ccc32)cc1` [Compound 702], the “Fold @ 1 nM” value worked out at 1 fold, the “Fold @ 100 nM” value is given as 1 fold and the “Fold relative to benchmark @ 100 nM” value is given as 0.04 fold.
As to `COc1ccc(Cn2c(-c3cccc4ccccc34)nc3cc(Cl)ccc32)cc1` [Compound 852], the “Fold @ 1 nM” value came to 1 fold, the “Fold @ 100 nM” value came out at 1 fold, the “Fold @ 10 uM” value worked out at 29 fold and the “Fold relative to benchmark @ 100 nM” value worked out at 0.03 fold.
In the case of `O=C(c1ccc2nc(-c3cccc4ccccc34)n(Cc3ccc(F)c(F)c3)c2c1)N1CCOCC1` [Compound 1330], the “Fold @ 1 nM” value is listed as 1 fold, the “Fold @ 100 nM” value worked out at 1 fold, the “Fold @ 10 uM” value is reported as 1 fold and the “Fold relative to benchmark @ 100 nM” value was 0.03 fold.
`O=c1c2cccc3cccc(c32)c2nc3ccc(Cl)cc3n12` [Compound 363, 7-chloro-3,10-diazapentacyclo[10.7.1.0^2,10.0^4,9.0^16,20]icosa-1(19),2,4(9),5,7,12,14,16(20),17-nonaen-11-one]: the “Fold @ 1 nM” value is given as 4 fold, the “Fold @ 100 nM” value worked out at 14 fold, the “Fold @ 10 uM” value amounted to 30 fold and the “Fold relative to benchmark @ 100 nM” value was determined as 0.69 fold.
On the same counts, the results for `CN(C)c1ccc(C(=O)n2c(-c3cccc4ccccc34)nc3cc(Cl)ccc32)cc1` [Compound 685] are 1 fold, 13 fold, 28 fold and 0.5 fold.
The like results for `O=C(c1ccccc1)n1c(-c2cccc(C(F)(F)F)c2)nc2ccc(Cl)cc21` [Compound 789] were, in that order, 1 fold, 3 fold, 8 fold and 0.12 fold.
The like results for `O=C(c1ccc2nc(-c3cccc4ccccc34)n(S(=O)(=O)c3cccc(F)c3)c2c1)N1CCOCC1` [Compound 1357] were, in that order, 1 fold, 1 fold, 1 fold and 0.03 fold.
